Where “and” joins values, the source holds several entries; their conditions need not be identical. Identical values can stand only once.
Target: T1, Histone deacetylase 8 (Homo sapiens, UniProt Q9BY41)
T1 sequence (Q9BY41 whole entry): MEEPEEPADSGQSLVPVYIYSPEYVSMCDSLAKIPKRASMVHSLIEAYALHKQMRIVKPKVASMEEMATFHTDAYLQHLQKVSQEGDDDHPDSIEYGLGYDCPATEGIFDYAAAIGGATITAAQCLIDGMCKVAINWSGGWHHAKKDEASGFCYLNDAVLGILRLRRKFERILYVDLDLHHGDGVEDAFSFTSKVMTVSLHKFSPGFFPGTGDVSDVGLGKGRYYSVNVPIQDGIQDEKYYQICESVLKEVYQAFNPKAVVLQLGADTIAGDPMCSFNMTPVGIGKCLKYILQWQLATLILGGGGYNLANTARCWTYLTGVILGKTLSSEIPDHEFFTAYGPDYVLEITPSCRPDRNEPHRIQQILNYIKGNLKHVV
Assay: Enzyme inhibition assay
Protocol: The nucleus extract […] HDAC8 enzyme was expressed in Escherichia coli. Boc-Lys (acetyl)-AMC was used as the substrate of HDAC. SAHA which is the HDAC inhibitor on market was used as a positive control. The compounds were diluted to six concentrations (25, 5, 1, 0.2, 0.04 and 0.008 uM/L) to investigate their ability of inhibiting HDAC activity.

SMILES | IC50
Cc1ccccc1NC(=O)[C@@H](NC(=O)Nc1ccc(C(=O)NCCCCCC(=O)NO)cc1)c1ccccc1 [(S)-N-(6-(hydroxyamino)-6-oxohexyl)-4-(3-(2-oxo-1-phenyl-2-(o-tolylamino)ethyl)ureido)benzamide (L6)] | 1340 nM
O=C(CCCCCNC(=O)c1ccc(NC(=O)N[C@H](C(=O)Nc2ccc(F)cc2)c2ccccc2)cc1)NO [(S)-4-(3-(2-((4-fluorophenyl)amino)-2-oxo-1-phenylethyl)ureido)-N-(6-(hydroxyamino)-6-oxohexyl)benzamide (L3)] | 1770 nM
CC(C)(C)c1ccc(NC(=O)[C@@H](NC(=O)Nc2ccc(C(=O)NCCCCCC(=O)NO)cc2)c2ccccc2)cc1 [(S)-4-(3-(2-((4-(tert-butyl)phenyl)amino)-2-oxo-1-phenylethyl)ureido)-N-(6-(hydroxyamino)-6-oxohexyl)benzamide (L4)] | 2340 nM
O=C(CCCCCNC(=O)c1ccc(NC(=O)N[C@H](C(=O)NCc2ccc(F)cc2)c2ccccc2)cc1)NO [(S)-4-(3-(2-((4-fluorobenzyl)amino)-2-oxo-1-phenylethyl)ureido)-N-(6-(hydroxyamino)-6-oxohexyl)benzamide (L15)] | 1070 nM and 1210 nM
O=C(CCCCCNC(=O)c1ccc(NC(=O)N[C@H](C(=O)Nc2ccccc2F)c2ccccc2)cc1)NO [(S)-4-(3-(2-((2-fluorophenyl)amino)-2-oxo-1-phenylethyl)ureido)-N-(6-(hydroxyamino)-6-oxohexyl)benzamide (L2)] | 1320 nM
Cc1cc(C)cc(NC(=O)[C@@H](NC(=O)Nc2ccc(C(=O)NCCCCCC(=O)NO)cc2)c2ccccc2)c1 [(S)-4-(3-(2-((3,5-dimethylphenyl)amino)-2-oxo-1-phenylethyl)ureido)-N-(6-(hydroxyamino)-6-oxohexyl)benzamide (L13)] | 1660 nM
O=C(CCCCCNC(=O)c1ccc(NC(=O)N[C@H](C(=O)NCc2ccccc2)c2ccccc2)cc1)NO [(S)-4-(3-(2-(benzylamino)-2-oxo-1-phenylethyl)ureido)-N-(6-(hydroxyamino)-6-oxohexyl)benzamide (L1)] | 1510 nM
O=C(CCCCCNC(=O)c1ccc(NC(=O)N[C@H](C(=O)Nc2ccc(Cl)cc2Cl)c2ccccc2)cc1)NO [(S)-4-(3-(2-((2,4-dichlorophenyl)amino)-2-oxo-1-phenylethyl)ureido)-N-(6-(hydroxyamino)-6-oxohexyl)benzamide (L19)] | 1570 nM
Cc1ccc(NC(=O)[C@@H](NC(=O)Nc2ccc(C(=O)NCCCCCC(=O)NO)cc2)c2ccccc2)cc1 [(S)-N-(6-(hydroxyamino)-6-oxohexyl)-4-(3-(2-oxo-1-phenyl-2-(p-tolylamino)ethyl)ureido)benzamide (L9)] | 1870 nM
O=C(CCCCCNC(=O)c1ccc(NC(=O)N[C@H](C(=O)Nc2cccc(C(F)(F)F)c2)c2ccccc2)cc1)NO [(S)-N-(6-(hydroxyamino)-6-oxohexyl)-4-(3-(2-oxo-1-phenyl-2-((3-(trifluoromethyl)phenyl)amino)ethyl)ureido)benzamide (L8)] | 967 nM
O=C(CCCCCNC(=O)c1ccc(NC(=O)N[C@H](C(=O)Nc2cccc(Cl)c2)c2ccccc2)cc1)NO [(S)-4-(3-(2-((3-chlorophenyl)amino)-2-oxo-1-phenylethyl)ureido)-N-(6-(hydroxyamino)-6-oxohexyl)benzamide (L12)] | 1280 nM
CC(C)(C)OC(=O)NC(C(=O)Nc1ccc(C(=O)NO)cc1)c1ccccc1 (configuration not stated) [phenylglycine containing lead compound (4h)] | 1520 nM
CC(C)c1cccc(C(C)C)c1NC(=O)[C@@H](NC(=O)Nc1ccc(C(=O)NCCCCCC(=O)NO)cc1)c1ccccc1 [(S)-4-(3-(2-((2,6-diisopropylphenyl)amino)-2-oxo-1-phenylethyl)ureido)-N-(6-(hydroxyamino)-6-oxohexyl)benzamide (L17)] | 1790 nM
COc1ccccc1NC(=O)[C@@H](NC(=O)Nc1ccc(C(=O)NCCCCCC(=O)NO)cc1)c1ccccc1 [(S)-N-(6-(hydroxyamino)-6-oxohexyl)-4-(3-(2-((2-methoxyphenyl)amino)-2-oxo-1-phenylethyl)ureido)benzamide (L10)] | 1770 nM
O=C(CCCCCNC(=O)c1ccc(NC(=O)N[C@H](C(=O)Nc2ccco2)c2ccccc2)cc1)NO [(S)-4-(3-(2-(furan-2-ylamino)-2-oxo-1-phenylethyl)ureido)-N-(6-(hydroxyamino)-6-oxohexyl)benzamide (L5)] | 1460 nM
O=C(CCCCCNC(=O)c1ccc(NC(=O)N[C@H](C(=O)Nc2ccccc2O)c2ccccc2)cc1)NO [(S)-N-(6-(hydroxyamino)-6-oxohexyl)-4-(3-(2-((2-hydroxyphenyl)amino)-2-oxo-1-phenylethyl)ureido)benzamide (L11)] | 1300 nM
Cc1cccc(NC(=O)[C@@H](NC(=O)Nc2ccc(C(=O)NCCCCCC(=O)NO)cc2)c2ccccc2)c1 [(S)-N-(6-(hydroxyamino)-6-oxohexyl)-4-(3-(2-oxo-1-phenyl-2-(m-tolylamino)ethyl)ureido)benzamide (L18)] | 1320 nM
